# Laboratory results reported in US10918585B2, “Anti-aging agent and anti-aging composition for skin” (SHOWA DENKO K.K., priority 2015, dated 2021).
# Legend:
# elastin genes = assay: Expression of elastin genes in normal human fibroblasts (quantitative real-time PCR, standardized to GAPDH); assay type: cell-based; conditions: NB1RGB cells, 0.001 w/v % myo-inositol, 24 hours, purified water = 1.00
# Protocol: (§1) The gene expression of collagen and elastin in normal human fibroblasts was examined. Further, it has been known that a decrease in expression level of collagen and elastin due to cellular aging causes wrinkles.
# (§2) NB1RGB cells (purchased from Riken BioResource Center), which are normal human fibroblasts, were seeded in a plastic dish at a seeding density of 10000 cells/cm^2 and cultured in Dulbecco's Modified Eagle's medium (DMEM) (manufactured by Sigma-Aldrich Corporation) containing 10% fetal bovine serum for 24 hours. Thereafter, each inositol derivative of Examples 1 to 6 and Comparative Example 1 in a state of being dissolved in purified water was added to the medium at a final concentration of 0.01 w/v % and further cultured for 24 hours. […]
# (§3) Next, total RNA was extracted from cells of each group to synthesize cDNA. Next, the expression levels of collagen genes and elastin genes in NB1RGB cells of each group were quantified by performing quantitative real-time PCR using the cDNA as a template. Further, the expression level of glyceraldehyde-3-phospahte dehydrogenase (GAPDH), which is a housekeeping gene, was quantified as an internal standard gene, and the expression levels of collagen genes and elastin genes were respectively standardized based on the expression level of the GAPDH genes in the NB1RGB cells of each group. […]
# collagen genes = assay: Expression of collagen genes in normal human fibroblasts (quantitative real-time PCR, standardized to GAPDH); assay type: cell-based; conditions: NB1RGB cells, 24 hours
# Protocol: as §1, §2, §3
structure (smiles),measurement,setting,value
O[C@H]1[C@H](O)[C@@H](O)[C@H](O)[C@@H](O)[C@H]1O [myo-Inositol],Expression level of genes (relative value) Elastin,elastin genes,1.23 relative value
same,Expression level of genes (relative value) Collagen,"collagen genes; 0.001 w/v % myo-inositol, standardized to GAPDH, purified water = 1.00",0.54 relative value
same,Expression of collagen genes compared to the purified water as a control (in words),"collagen genes; inositol derivatives 0.01 w/v %, myo-inositol 0.001 w/v %",a decrease in expression of collagen genes was shown
